Reference: article doi:10.1101/2023.01.08.523168v1 (biorxiv, 2023)
Residues, ends and D or L forms follow the SMILES beside them. *: point of attachment. Oxazole(5-CO) = O=C(c1cnco1)*

Molecular target: T1, NanoLuc-ENL (ENL YEATS-NanoLuc luciferase fusion protein) (Homo sapiens, UniProt Q03111)
T1 sequence (Q03111 1-148): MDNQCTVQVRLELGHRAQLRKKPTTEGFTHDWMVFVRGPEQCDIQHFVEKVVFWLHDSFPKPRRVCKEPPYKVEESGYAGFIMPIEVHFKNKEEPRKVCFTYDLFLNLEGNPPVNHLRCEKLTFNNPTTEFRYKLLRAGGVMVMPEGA
Assay: NanoBRET tracer displacement in HEK293T cells
Type: cell-based
Conditions: HEK-293T, read-out: % inhibition at 40 μM

inhibition at 40 µM: ~50%
SMILES: CC(=O)N[C@H](C(=O)N[C@@H](Cc1ccc(O)cc1)C(=O)N[C@@H](CS)C(=O)N[C@@H](Cc1ccc(O)cc1)C(=O)N[C@@H](CCCCNC(=O)c1cnco1)C(N)=O)C(C)C [tENL-S1o] (Ac-VYCYK(Oxazole(5-CO))-NH2)
